Earlier results on 3 molecules are cited in US7282150B2, “Method of extracting and method of purifying an effective substance” (Ezaki Glico Co., Ltd., priority 2001, dated 2007).

The conditions of this series: cited from earlier work.

For the molecule `C[C@@H]1O[C@@H](O[C@H]2[C@H](Oc3cc(O)c4c(c3)O[C@H](c3ccc(O)cc3)CC4=O)O[C@H](CO)[C@@H](O)[C@@H]2O)[C@H](O)[C@H](O)[C@H]1O` [naringin], the solubility in water entry is given as “poorly soluble in water”.
Regarding `COc1ccc([C@@H]2CC(=O)c3c(O)cc(O[C@@H]4O[C@H](CO)[C@@H](O)[C@H](O)[C@H]4O[C@@H]4O[C@@H](C)[C@H](O)[C@@H](O)[C@H]4O)cc3O2)cc1O` [neohesperidin], the solubility in water entry is recorded as “poorly soluble in water”.
`C[C@@H]1O[C@@H](OC[C@H]2O[C@@H](Oc3c(-c4ccc(O)c(O)c4)oc4cc(O)cc(O)c4c3=O)[C@H](O)[C@@H](O)[C@@H]2O)[C@H](O)[C@H](O)[C@H]1O` [rutin]: the solubility in water entry is on record as “poorly soluble in water”. For the same molecule, the solubility in acetone entry (acetone) is reported as “insoluble in acetone”.
